Laboratory results: patent US5833994A, “Use of the AH receptor and AH receptor ligands to treat or prevent cytopathicity of viral infection” (Paracelsian, Inc., priority 1997, dated 1998)
Entries after “also recorded” stand apart in the source; their conditions may differ. Where two headings read alike, the source gives them in different places. Values belong to the molecule of their own block, whether it stands above or below them.

Assays:
[1] = tested on: HIV envelope gp120/41-induced syncytia formation in CD4+T cell lines (HIVenv 2-8 co-culture); test: Inhibition of HIVenv 2-8-induced syncytia formation / cell death (HIV-1 co-culture assay); format: cell-based; conditions: for Estimated IC50 (Syncitia Quantification), inhibition of HIV-induced cytopathicity: Table 1
Experimental: Sourcing of Ah Receptor Ligands: The Ah receptor ligands 2,3,7,8-Tetrachlorodibenzo-p-dioxin, 3,3',4,4',5-Pentachlorobiphenyl, 3,3',4,'4-Tetrachlorobiphenyl, and 2-Monochlorodibenzo-p-dioxin compounds were purchased from Accustandard (Cambridge, Mass.). α-naphthoflavone was purchased from Sigma (St. Louis, Mo.). Stock solutions of each compound were prepared by dissolution in DMSO at a 1000X concentration, i.e. the highest concentration tested was diluted by 1000-fold.
Bioassay Procedure: The cell lines utilized in the assay protocol include the following: HIVenv 2-2 (non-cytopathic), HIVenv 2-8 (cytopathic), Jurkat CD4+T cell line (clone E6-1), and SupT1. Cell lines were cultured in RPMI medium (Gibco, Grand Island, N.Y.) supplemented with L-glutamine (Sigma, St. Louis, Mo.) and 10% FBS-HI (Intergen). The Jurkat CD4+T cell line was obtained from American Type Culture Collection (Bethesda, Md.). All other cell lines were obtained from the National Institutes of Health. The HIVenv 2-2 or HIVenv 2-8 cells were plated with both CD4+T cell lines (1×10^3 cells per cell line in 16 μL of media.) in a 96-well tissue culture plate containing 50 μL of media with compound to be tested yielding a final volume of approximately 100 μL. The plates were then gently shaken to ensure adequate mixing of the assay components. Cells were then co-cultured at 5% CO2, 37C., and 95% humidity for 24 to 48 hours. The time points were chosen for the convenience, cytopathic changes become evident in the cell cultures used within a 2 to 4 hour period, becoming more and more prominent with time.
Data Reduction for this ELISA: HIVenv 2-2 co-culture ELISA values are used as the background for HIVenv 2-8 co-culture values. Dose responses are then plotted with dose along the x-axis and the background corrected optical density values on the y-axis.
Positive and Negative Controls: The use of the HIVenv 2-2 cell line serves as a negative control for induction of cytopathicity.
(§1) Interpretation of the Test: A positive response was defined as a dose-related decrease in syncytia formation in excess of 50% compared to HIVenv 2-8 co-cultures alone. Calculation of median effective doses was estimated by visual observation and by quantification of syncitia in 10X power microscope fields.
The Materials and Methods used in the testing of the various dibenzofuran compounds were the same as those used in Example 1 above. This includes the use of the same controls, cell lines, and assay procedures.
as §1, with “fields. Another procedure which provides data similar to the Bioassay procedure just described allows for quantification of changes in the co-culture cells through an ELISA method, not as reliant on visual observation. […]” for “fields.”

[2] = target: T1, Ah receptor (Cavia porcellus, UniProt Q6J287); test: Inhibition of Ah receptor transformation, antagonist test (Ah-immunoassay, 0.5 nM TCDD); conditions: for Test as antagonist, Milli O.D at 405: 0.5 nM TCDD; for binding or interaction with the Ah receptor (words): with and without 0.5 nM TCDD
T1 sequence (Q6J287 1-846): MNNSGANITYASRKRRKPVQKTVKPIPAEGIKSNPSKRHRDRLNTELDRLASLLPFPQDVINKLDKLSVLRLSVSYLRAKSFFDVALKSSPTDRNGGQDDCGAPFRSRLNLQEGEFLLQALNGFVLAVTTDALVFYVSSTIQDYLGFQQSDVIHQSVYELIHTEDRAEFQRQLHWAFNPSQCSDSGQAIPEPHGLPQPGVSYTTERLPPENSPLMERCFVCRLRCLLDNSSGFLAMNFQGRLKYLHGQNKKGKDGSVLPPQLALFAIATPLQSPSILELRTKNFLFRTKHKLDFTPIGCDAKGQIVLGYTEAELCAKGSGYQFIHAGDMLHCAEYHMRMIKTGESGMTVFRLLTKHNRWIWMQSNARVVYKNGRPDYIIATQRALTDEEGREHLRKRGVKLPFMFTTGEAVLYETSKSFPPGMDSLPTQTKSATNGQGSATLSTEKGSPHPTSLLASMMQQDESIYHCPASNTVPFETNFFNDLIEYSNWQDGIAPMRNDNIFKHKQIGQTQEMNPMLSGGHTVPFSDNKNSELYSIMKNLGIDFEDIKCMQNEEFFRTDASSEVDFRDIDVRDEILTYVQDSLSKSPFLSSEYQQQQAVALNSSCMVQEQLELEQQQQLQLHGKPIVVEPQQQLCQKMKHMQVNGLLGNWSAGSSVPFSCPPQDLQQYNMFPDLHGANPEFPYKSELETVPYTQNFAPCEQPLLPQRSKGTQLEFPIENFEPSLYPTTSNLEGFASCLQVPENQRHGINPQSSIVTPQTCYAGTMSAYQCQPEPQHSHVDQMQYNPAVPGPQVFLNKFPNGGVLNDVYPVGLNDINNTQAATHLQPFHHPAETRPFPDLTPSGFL
Experimental: Cytosol was prepared as described in methods and treated with TCDD, DMSO or TCM extract to make 1) 0.5 nM TCDD, 2) 0.1% DMSO, or 3) 500 μg/mL TCM extract, respectively. The treated cytosol was serially diluted in a neutravidin-coated ELISA plate (Pierce, Rockford, Ill.). […] To treat for Ah receptor agonist activity, extracts were diluted in 0.5 nM TCDD treated cytosol to 250, 125, and 62.5 μg/mL of TCM extracts.
Ten mL aliquots of cytosol were thawed and pooled, generally 20 mL per ELISA plate. For each 20 mL of cytosol, 10 μL of thawed DRE stock and 1 mL HEDG in 4M NaCl were added.
0.5 nM TCDD Diluent for extracts (detection of antagonists): The cytosol is treated with 1 μl of 1 μM TCDD per 2 mL cytosol (0.5 nm).
500 μg/mL extracts (detection of antagonists): 1 μL of test extract (500 mg/mL in DMSO) in 1 mL 0.5 nM TCDD-treated cytosol (500 μg/mL final concentration of extract in cytosol).
Serial dilution's of the extracts and/or TCDD treated cytosol into DMSO-treated cytosol are done as required by the experiment and are described in the examples.
The ELISA plate containing the treated cytosol is incubated with gentle rocking for 2 hours at 30° C. to allow the transformation of Ah receptor, binding of Ah receptor with ARNT, and binding of the Ah receptor/ARNT complex to the biotinylated DRE, and binding of the biotinylated DRE to the neutravidin bound to the ELISA plate.
After 2 hours the plate is washed 3 times with 400 μL TBS plus 0.02% Tween 20 per well per wash and 200 μL of the working dilution of anti-ARNT added to all wells. The plate is again incubated with gentle rocking at 30° C. for 1 hour. After 1 hour the plate is washed as before and a working dilution (1:4000) of anti-rabbit/alkaline phosphatase conjugate is added to all wells. The plate is incubated for a further 1 hour at 30° C. with gentle rocking and then washed as before. PNPP stock is added to each well (200 μL) and the plate is incubated for 1 hour at 30° C., at which time it is read at 405 nm in an ELISA plate reader and the milli O.D.'s of the wells are recorded.
TCM extracts were tested for their ability to inhibit the transformation of the Ah receptor.

[3] = target: T1, Ah receptor; test: Ah receptor transformation, agonist test (Ah-immunoassay, absence of TCDD); format: biochemical, Guinea pig; conditions: absence of TCDD
Experimental: Cytosol was prepared as described above.
Diluent for TCDD dose response, diluent for extracts (detection of agonists), and negative control: The cytosol is treated with 1 μL DMSO per 1 mL cytosol (-).
1 nM TCDD treated, positive control. […] DMSO diluent for detection of agonists: the cytosol is treated with μL DMSO per 1 mL cytosol. (1 nm final concentration of TCDD).

[4] = tested on: HIV; viruses; tumors; liver; conditions: cited from earlier work

SMILES: CC(C)c1cc(Cl)cc2c1oc1cc(Cl)cc(Cl)c12 [6-isopropyl,1,3,8-trichlorodibenzofuran]
inhibition of syncytia formation / cytopathicity [1]: slightly less antagonistic activity
Estimated IC50 (Syncitia Quantification), inhibition of HIV-induced cytopathicity [1]: 100 nM

SMILES: Clc1ccc2c(c1)Oc1ccccc1O2 [Extract 2-MCDD, 2-Monochlorodibenzo-p-dioxin]
inhibition of syncytia formation / cytopathicity [1]: incapable of blocking the cytopathic effect
Estimated IC50 (Syncitia Quantification), inhibition of HIV-induced cytopathicity [1]: No Inhibition Observed

Test as antagonist, Milli O.D at 405 ([2]; Table 11, 0.313 μg/mL): 1493 Milli O.D
Test as antagonist, Milli O.D at 405 ([2]; Table 11, 0.625 μg/mL): 1444 Milli O.D
Test as antagonist, Milli O.D at 405 ([2]; Table 11, 1.25 μg/mL): 1438 Milli O.D
Test as antagonist, Milli O.D at 405 ([2]; Table 11, 2.5 μg/mL): 1462 Milli O.D
Test as antagonist, Milli O.D at 405 ([2]; Table 11, 5 μg/mL): 1423 Milli O.D
Test as antagonist, Milli O.D at 405 ([2]; Table 11, 10 μg/mL): 1143 Milli O.D
binding or interaction with the Ah receptor (words) [2]: non-Ah receptor binding
Test as agonist, Milli O.D at 405 ([3]; Table 11, 0.313 μg/mL): 48 Milli O.D
Test as agonist, Milli O.D at 405 ([3]; Table 11, 0.625 μg/mL): 19.5 Milli O.D
Test as agonist, Milli O.D at 405 ([3]; Table 11, 1.25 μg/mL): 49 Milli O.D
Test as agonist, Milli O.D at 405 ([3]; Table 11, 2.5 μg/mL): 49.5 Milli O.D
Test as agonist, Milli O.D at 405 ([3]; Table 11, 5 μg/mL): 49.5 Milli O.D
Test as agonist, Milli O.D at 405 ([3]; Table 11, 10 μg/mL): 50 Milli O.D
SMILES: CC1(C)CC[C@]2(C(=O)O)CC[C@]3(C)C(=CC[C@@H]4[C@@]5(C)CC[C@H](O)C(C)(C)[C@@H]5CC[C@]43C)[C@@H]2C1 [Oleanolic Acid]

SMILES: Cc1cc(Cl)cc2c1oc1cc(Cl)cc(Cl)c12 [6-methyl,1,3,8-trichlorodibenzofuran]
Estimated IC50 (Syncitia Quantification), inhibition of HIV-induced cytopathicity [1]: 200 nM

SMILES: CCc1cc(Cl)cc2c1oc1cc(Cl)cc(Cl)c12 [6-ethyl,1,3,8-trichlorodibenzofuran]
Estimated IC50 (Syncitia Quantification), inhibition of HIV-induced cytopathicity [1]: 1000 nM

SMILES: O=[N+]([O-])c1cc(Cl)cc2c1oc1cc(Cl)cc(Cl)c12 [6-nitro 1,3,8-trichlorodibenzofuran]
inhibition of syncytia formation / cytopathicity [1]: slightly less antagonistic activity
Estimated IC50 (Syncitia Quantification), inhibition of HIV-induced cytopathicity [1]: 500 nM

SMILES: CC(C)(C)c1cc(Cl)cc2c1oc1cc(Cl)cc(Cl)c12 [6-t-butyl,1,3,8-trichlorodibenzofuran]
Estimated IC50 (Syncitia Quantification), inhibition of HIV-induced cytopathicity [1]: 1500 nM

SMILES: Clc1ccc(-c2ccc(Cl)c(Cl)c2)cc1Cl [3,3',4,4'-TCB, 3,3',4,4'-tetrachlorobiphenyl]
inhibition of syncytia formation / cytopathicity [1]: correspondingly weaker activity
Estimated IC50 (Syncitia Quantification), inhibition of HIV-induced cytopathicity [1]: 35 nM

Test as antagonist, Milli O.D at 405 ([2]; Table 11, 0.313 μg/mL): 1457 Milli O.D
Test as antagonist, Milli O.D at 405 ([2]; Table 11, 0.625 μg/mL): 1402 Milli O.D
Test as antagonist, Milli O.D at 405 ([2]; Table 11, 1.25 μg/mL): 1437 Milli O.D
Test as antagonist, Milli O.D at 405 ([2]; Table 11, 2.5 μg/mL): 1416 Milli O.D
Test as antagonist, Milli O.D at 405 ([2]; Table 11, 5 μg/mL): 1421 Milli O.D
Test as antagonist, Milli O.D at 405 ([2]; Table 11, 10 μg/mL): 1164 Milli O.D
Test as agonist, Milli O.D at 405 ([3]; Table 11, 0.313 μg/mL): 49.5 Milli O.D
Test as agonist, Milli O.D at 405 ([3]; Table 11, 0.625 μg/mL): 43 Milli O.D
Test as agonist, Milli O.D at 405 ([3]; Table 11, 1.25 μg/mL): 59.5 Milli O.D
Test as agonist, Milli O.D at 405 ([3]; Table 11, 2.5 μg/mL): 54.5 Milli O.D
Test as agonist, Milli O.D at 405 ([3]; Table 11, 5 μg/mL): 55 Milli O.D
Test as agonist, Milli O.D at 405 ([3]; Table 11, 10 μg/mL): 47 Milli O.D
SMILES: C=C1CC[C@@H]2[C@](C)(CO)[C@H](O)CC[C@@]2(C)[C@@H]1C/C=C1/C(=O)OC[C@H]1O [Andrographolide, andrographolide]
pharmacological activity (words) [4]: anti-tumor activity
pharmacological activity (words) ([4]; listed as andrographolide): anti-HIV effects; also recorded: anti-viral, anti-neoplastic and hepatoprotective properties
binding or interaction with the Ah receptor (words) [2]: does not interact or inhibit the Ah receptor
binding or interaction with the Ah receptor (words) ([2]; listed as andrographolide): does not bind the Ah receptor; also recorded: non-Ah receptor binding

SMILES: Clc1ccc(-c2cc(Cl)c(Cl)c(Cl)c2)cc1Cl [3,3',4,4',5-PCB, 3,3',4,4',5-pentachlorobiphenyl]
inhibition of syncytia formation / cytopathicity [1]: correspondingly weaker activity
Estimated IC50 (Syncitia Quantification), inhibition of HIV-induced cytopathicity [1]: 100 nM

SMILES: Clc1cc2oc3cc(Cl)c(Cl)cc3c2cc1Cl [2,3,7,8-TCDF]
Estimated IC50 (Syncitia Quantification), inhibition of HIV-induced cytopathicity [1]: 80 nM

SMILES: Clc1cc(Cl)c2c(c1)oc1c(C3CCCCC3)cc(Cl)cc12 [6-cyclohexyl,1,3,8-trichlorodibenzofuran]
Estimated IC50 (Syncitia Quantification), inhibition of HIV-induced cytopathicity [1]: 500 nM

SMILES: Clc1cc2c(cc1Cl)Oc1c(Cl)c(Cl)c(Cl)c(Cl)c1O2 [1,2,3,4,7,8-HCDD]
Estimated IC50 (Syncitia Quantification), inhibition of HIV-induced cytopathicity [1]: No Inhibition Observed

SMILES: Cc1cc(Cl)cc2c1oc1cc(Cl)cc(Br)c12 [1-bromo,6-methyl,3,8-dichlorodibenzofuran]
inhibition of syncytia formation / cytopathicity [1]: most effective compound and strongest Ah receptor antagonist
Estimated IC50 (Syncitia Quantification), inhibition of HIV-induced cytopathicity [1]: 100 nM

SMILES: CCCCc1cc(Cl)cc2c1oc1cc(Cl)cc(Cl)c12 [6-butyl,1,3,8-trichlorodibenzofuran]
Estimated IC50 (Syncitia Quantification), inhibition of HIV-induced cytopathicity [1]: 1500 nM

SMILES: CCCc1cc(Cl)cc2c1oc1cc(Cl)cc(Cl)c12 [6-propyl,1,3,8-trichlorodibenzofuran]
Estimated IC50 (Syncitia Quantification), inhibition of HIV-induced cytopathicity [1]: 500 nM
